The text below walks through data of patent publication US9081736B2, “Modeling of mPGES-1 three-dimensional structures: applications in drug design and discovery” (The University of Kentucky Research Foundation, priority 2007, dated 2015).

One assay deals with T1, mPGES-1 (Homo sapiens, UniProt O14684).
T1 sequence (O14684 1-152): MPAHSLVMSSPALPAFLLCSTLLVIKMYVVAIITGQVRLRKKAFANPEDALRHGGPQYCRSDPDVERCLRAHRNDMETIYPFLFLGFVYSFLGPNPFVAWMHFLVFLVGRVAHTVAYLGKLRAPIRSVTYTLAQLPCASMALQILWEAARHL
Conditions: background statement; not selective for mPGES-1; cited from earlier work.

The target in a further assay is T2, mPGES-1 Q134E mutant (Homo sapiens, UniProt O14684, Q134E).
T2 sequence (O14684 1-152 Q134E): T1 sequence (O14684 1-152) with Q134E
Briefly: Activity assay, saturation kinetics for PGH2, Q134E mutant. Conditions: 2.5 mM GSH, 1-500 μM PGH2, errors expected to be very large, read-out: Experimental KM, this work. The assay is classed as biochemical. As for the experimental part: (§1) Expression and Preparation for the Membrane Fraction of mPGES-1 and its Mutants in E. coli: The wild-type mPGES-1 and its mutant plasmids from XLI-Blue were transformed into M15 E. coli cells. Cells were grown in 500 ml TB media containing 100 μg/ml ampicillin and 25 μg/ml kanamycin at 37° C. with shaking at 270 rpm until OD reached 0.8. IPTG was added to a final concentration of 2 mM and cells were allowed to grow for additional 3 hours at 37° C. Cells were then harvested by centrifugation at 5000 g for 15 min at 4° C. […] The cells were broken by sonication, and then the cell lysate was cleared by centrifugation at 12,500 g for 10 min. […] Total protein concentration of the membrane fraction was determined by coomassie protein assay according to the manufacture's instruction (Bio-Rad) with BSA as a standard.
(§2) The reaction contents were 1:2500 diluted, from which 50 μl aliquot was used for quantification of […] concentration by EIA assay. […] The KM values of wild-type mPGES-1 and its mutants were calculated by using the GraphPad Prism 4.01 program.

The next assay concerns the target T3, mPGES-1 Q36E mutant (Homo sapiens, UniProt O14684, Q36E).
T3 sequence (O14684 1-152 Q36E): T1 sequence (O14684 1-152) with Q36E
Put plainly: Activity assay, saturation kinetics for PGH2, Q36E mutant. It is filed as biochemical. Conditions: 2.5 mM GSH, 1-500 μM PGH2, errors expected to be very large, read-out: Experimental KM, this work. As for the experimental part: as §1, §2

The target of another assay is T4, wild-type mPGES-1 (Homo sapiens, UniProt O14684).
T4 sequence (O14684 1-152): T1 sequence (O14684 1-152)
Put plainly: Activity assay, saturation kinetics for PGH2, wild-type mPGES-1. It is filed as biochemical. On the set-up: The specific oligonucleotide primers to full length of mPGES-1 were synthesized; made in house; host or cells: E. coli M15 (membrane fraction). Conditions: 2.5 mM GSH, 1-500 μM PGH2, on ice, read-out: Experimental KM, this work. On the procedure:
as §1, §2

Numbering of substitutions follows the chain as printed.

On to `CS(=O)(=O)Nc1ccc([N+](=O)[O-])cc1OC1CCCCC1` [NS-398], for which, at mPGES-1, the “Ability to inhibit mPGES-1” value is reported as “able to inhibit mPGES-1”.

The term Km denotes the substrate concentration at which the rate is half of its maximum. As for `CCCCC[C@H](O)/C=C/[C@@H]1[C@@H](C/C=C\CCCC(=O)O)[C@@H]2C[C@H]1OO2` [PGH2, prostaglandin H2], the Km is about 734 µM on mPGES-1 Q134E mutant, about 1610 µM at mPGES-1 Q36E mutant and 130 µM at wild-type mPGES-1.
